# Results published in ChEMBL document CHEMBL1201862, “PubChem BioAssay data set” (2004).
# The source made the active and inactive calls.
# Experiments:
# [1] = target: T1, Microphthalmia-associated transcription factor (Homo sapiens, UniProt O75030); experiment: reducers of TRPM1 reporter luminescence, concentration series – cell-based, SK-MEL-5, cherry-picked, set 3, MITF inhibitor project, dose response (AID 493073); assay type: functional;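 note: SK-MEL-5 melanoma cells with luciferase driven by the MITF target TRPM1 promoter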
# T1 sequence (O75030 whole entry): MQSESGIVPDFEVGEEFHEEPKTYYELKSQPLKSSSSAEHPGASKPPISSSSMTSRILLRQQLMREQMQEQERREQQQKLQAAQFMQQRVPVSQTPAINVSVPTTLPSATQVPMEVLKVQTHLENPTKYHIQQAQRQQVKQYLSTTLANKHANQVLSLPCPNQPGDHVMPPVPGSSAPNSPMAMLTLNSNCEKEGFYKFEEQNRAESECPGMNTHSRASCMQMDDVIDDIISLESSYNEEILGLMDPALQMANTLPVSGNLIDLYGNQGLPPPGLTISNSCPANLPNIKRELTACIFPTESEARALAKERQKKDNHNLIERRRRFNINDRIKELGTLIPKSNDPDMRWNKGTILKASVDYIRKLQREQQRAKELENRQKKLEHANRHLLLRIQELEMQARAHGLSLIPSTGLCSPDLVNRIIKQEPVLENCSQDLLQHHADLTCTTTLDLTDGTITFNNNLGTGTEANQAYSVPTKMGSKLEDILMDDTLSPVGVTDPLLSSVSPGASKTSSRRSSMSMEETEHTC
# [2] = viability of uninfected HEp-2 cells – cell-based, HTS, cytotoxicity control for RSV inhibitor project, dose response (AID 2410); assay type: functional; settings: human respiratory syncytial virus
# [3] = target: Neurotensin receptor type 1 (Homo sapiens, UniProt P30989); assay type: functional;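 note: Image-based confirmatory dose-response assay measuring agonist activity at NTR1; NTR1-expressing U2OS osteosarcoma cells imaged for beta-arrestin GFP spot formation; agonist potency where compounds increase beta-arrestin recruitment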
# [4] = HEK-293T cell viability reduction – luminescence, B-cell screen hits, cytotoxicity control for BCR NF-kB inhibitor project, dose response (AID 489021); assay type: functional, cell-based;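 note: HEK-293T cells carrying an NF-kB luciferase reporter; cells exposed to compound for about 14 hours before viability readout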
# [5] = target: Eukaryotic translation initiation factor 4E (Mus musculus, UniProt P63073); experiment: blockers of eIF4G binding by eIF4E – biochemical, TR-FRET, dose response (AID 855); assay type: functional;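 note: potency for disrupting eIF4E binding to eIF4GI seen as loss of FRET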
# CAAX prenyl protease 1 = target: T2, CAAX prenyl protease 1 (Saccharomyces cerevisiae S288c, UniProt P47154); experiment: yeast CAAX protease Ste24 inhibition – biochemical, S. cerevisiae, plate reader, cherry-pick, dose response (AID 488815)
# T2 sequence (P47154 whole entry): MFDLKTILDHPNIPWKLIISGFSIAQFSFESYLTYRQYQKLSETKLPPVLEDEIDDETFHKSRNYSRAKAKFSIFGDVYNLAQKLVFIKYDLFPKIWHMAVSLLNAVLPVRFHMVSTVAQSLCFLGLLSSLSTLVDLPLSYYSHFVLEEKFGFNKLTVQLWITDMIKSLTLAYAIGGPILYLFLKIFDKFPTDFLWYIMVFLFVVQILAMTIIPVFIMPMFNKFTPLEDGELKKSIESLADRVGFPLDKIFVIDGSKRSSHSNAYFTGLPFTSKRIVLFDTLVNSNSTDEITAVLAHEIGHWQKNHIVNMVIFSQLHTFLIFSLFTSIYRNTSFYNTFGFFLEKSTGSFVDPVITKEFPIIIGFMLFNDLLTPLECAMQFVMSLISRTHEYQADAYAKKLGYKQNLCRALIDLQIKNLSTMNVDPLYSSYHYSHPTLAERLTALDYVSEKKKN
# Trypsin = Trypsin (Sus scrofa, UniProt P00761); experiment: trypsin protease activity blockade – biochemical, quenched peptide fluorescence, cherry-pick, selectivity assay for Rce1 protease inhibitor project, dose response (AID 488789)
# CAAX prenyl protease 2 = target: T3, CAAX prenyl protease 2 (Homo sapiens, UniProt Q9Y256); experiment: inhibition of Ras-converting CAAX protease Rce1 – biochemical, yeast membranes, quenched-peptide fluorescence, cherry-pick, dose response (AID 588849)
# T3 sequence (Q9Y256 whole entry): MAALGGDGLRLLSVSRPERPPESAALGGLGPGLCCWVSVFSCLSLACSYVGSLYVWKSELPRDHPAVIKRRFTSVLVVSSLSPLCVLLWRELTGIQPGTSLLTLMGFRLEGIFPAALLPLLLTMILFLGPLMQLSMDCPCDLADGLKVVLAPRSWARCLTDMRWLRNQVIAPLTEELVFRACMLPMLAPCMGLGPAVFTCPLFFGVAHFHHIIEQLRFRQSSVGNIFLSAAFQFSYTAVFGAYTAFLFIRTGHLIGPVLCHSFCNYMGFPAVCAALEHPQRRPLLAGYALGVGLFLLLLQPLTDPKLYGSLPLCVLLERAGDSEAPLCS
# Cytochrome P450 3A4 = Cytochrome P450 3A4 (Homo sapiens, UniProt P08684);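 note: CYP3A4 tested as one member of a cytochrome P450 panel screen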
# Cytochrome P450 1A2 = target: T4, Cytochrome P450 1A2 (Homo sapiens, UniProt P05177);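 note: PubChem cytochrome P450 panel assay, CYP1A2 panel member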
# T4 sequence (P05177 whole entry): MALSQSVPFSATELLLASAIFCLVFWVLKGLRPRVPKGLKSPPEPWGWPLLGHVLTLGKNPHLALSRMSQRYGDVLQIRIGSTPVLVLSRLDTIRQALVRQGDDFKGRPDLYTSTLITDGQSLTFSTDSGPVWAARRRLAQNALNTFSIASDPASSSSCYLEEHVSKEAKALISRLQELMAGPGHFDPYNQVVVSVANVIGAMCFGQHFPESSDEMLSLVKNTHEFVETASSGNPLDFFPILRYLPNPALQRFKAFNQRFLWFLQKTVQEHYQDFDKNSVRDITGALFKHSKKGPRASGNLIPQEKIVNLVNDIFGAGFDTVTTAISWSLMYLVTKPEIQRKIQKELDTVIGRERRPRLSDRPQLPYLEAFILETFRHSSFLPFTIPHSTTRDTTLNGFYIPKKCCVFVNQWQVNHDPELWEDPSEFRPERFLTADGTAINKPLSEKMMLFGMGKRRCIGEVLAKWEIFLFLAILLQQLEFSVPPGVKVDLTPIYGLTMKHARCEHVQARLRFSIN
# [6] = target: T5, Histone-lysine N-methyltransferase NSD2 (Homo sapiens, UniProt O96028); assay type: biochemical
# T5 sequence (O96028 whole entry): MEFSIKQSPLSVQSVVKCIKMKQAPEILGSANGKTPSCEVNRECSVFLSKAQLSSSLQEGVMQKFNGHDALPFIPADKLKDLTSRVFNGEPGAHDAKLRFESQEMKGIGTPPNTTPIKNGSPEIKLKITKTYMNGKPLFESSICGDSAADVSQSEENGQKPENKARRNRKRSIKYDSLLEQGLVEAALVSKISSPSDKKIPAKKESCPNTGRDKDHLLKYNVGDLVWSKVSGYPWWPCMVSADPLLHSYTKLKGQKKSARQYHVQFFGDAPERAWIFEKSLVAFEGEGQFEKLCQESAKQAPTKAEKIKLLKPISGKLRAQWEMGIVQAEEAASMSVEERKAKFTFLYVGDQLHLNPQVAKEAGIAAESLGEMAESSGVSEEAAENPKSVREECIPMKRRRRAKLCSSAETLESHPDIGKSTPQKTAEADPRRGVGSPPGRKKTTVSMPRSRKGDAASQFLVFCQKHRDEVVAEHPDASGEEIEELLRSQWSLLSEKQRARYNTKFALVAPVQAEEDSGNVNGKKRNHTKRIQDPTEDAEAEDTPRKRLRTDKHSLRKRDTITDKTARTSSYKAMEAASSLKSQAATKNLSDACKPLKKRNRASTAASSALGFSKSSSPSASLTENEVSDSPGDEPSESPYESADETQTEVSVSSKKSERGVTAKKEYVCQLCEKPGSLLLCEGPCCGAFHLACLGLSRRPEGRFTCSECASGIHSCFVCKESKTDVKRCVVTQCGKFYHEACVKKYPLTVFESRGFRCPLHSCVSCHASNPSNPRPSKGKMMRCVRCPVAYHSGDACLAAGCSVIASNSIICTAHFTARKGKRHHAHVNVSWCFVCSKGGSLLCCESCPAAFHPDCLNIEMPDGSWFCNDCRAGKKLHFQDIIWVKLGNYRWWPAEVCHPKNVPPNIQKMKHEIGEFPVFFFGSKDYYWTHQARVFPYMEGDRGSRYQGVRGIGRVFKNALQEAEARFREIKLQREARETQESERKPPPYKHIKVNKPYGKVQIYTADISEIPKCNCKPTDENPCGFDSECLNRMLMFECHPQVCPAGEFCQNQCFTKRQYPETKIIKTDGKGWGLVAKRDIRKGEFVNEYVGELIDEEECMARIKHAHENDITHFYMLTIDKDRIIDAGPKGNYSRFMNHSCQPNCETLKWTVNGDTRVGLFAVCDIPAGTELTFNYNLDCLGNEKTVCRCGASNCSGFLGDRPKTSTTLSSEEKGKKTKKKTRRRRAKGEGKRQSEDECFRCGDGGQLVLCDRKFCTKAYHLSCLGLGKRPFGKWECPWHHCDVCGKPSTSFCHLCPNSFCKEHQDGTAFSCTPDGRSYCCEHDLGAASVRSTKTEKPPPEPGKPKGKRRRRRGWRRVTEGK
# [7] = target: T6, Replicative DNA helicase DnaB (Mycobacterium tuberculosis, UniProt P9WMR3); experiment: DnaB intein splicing inhibitors, dose response, biochemical, cell-free fluorescence (AID 449749); assay type: functional
# T6 sequence (P9WMR3 whole entry): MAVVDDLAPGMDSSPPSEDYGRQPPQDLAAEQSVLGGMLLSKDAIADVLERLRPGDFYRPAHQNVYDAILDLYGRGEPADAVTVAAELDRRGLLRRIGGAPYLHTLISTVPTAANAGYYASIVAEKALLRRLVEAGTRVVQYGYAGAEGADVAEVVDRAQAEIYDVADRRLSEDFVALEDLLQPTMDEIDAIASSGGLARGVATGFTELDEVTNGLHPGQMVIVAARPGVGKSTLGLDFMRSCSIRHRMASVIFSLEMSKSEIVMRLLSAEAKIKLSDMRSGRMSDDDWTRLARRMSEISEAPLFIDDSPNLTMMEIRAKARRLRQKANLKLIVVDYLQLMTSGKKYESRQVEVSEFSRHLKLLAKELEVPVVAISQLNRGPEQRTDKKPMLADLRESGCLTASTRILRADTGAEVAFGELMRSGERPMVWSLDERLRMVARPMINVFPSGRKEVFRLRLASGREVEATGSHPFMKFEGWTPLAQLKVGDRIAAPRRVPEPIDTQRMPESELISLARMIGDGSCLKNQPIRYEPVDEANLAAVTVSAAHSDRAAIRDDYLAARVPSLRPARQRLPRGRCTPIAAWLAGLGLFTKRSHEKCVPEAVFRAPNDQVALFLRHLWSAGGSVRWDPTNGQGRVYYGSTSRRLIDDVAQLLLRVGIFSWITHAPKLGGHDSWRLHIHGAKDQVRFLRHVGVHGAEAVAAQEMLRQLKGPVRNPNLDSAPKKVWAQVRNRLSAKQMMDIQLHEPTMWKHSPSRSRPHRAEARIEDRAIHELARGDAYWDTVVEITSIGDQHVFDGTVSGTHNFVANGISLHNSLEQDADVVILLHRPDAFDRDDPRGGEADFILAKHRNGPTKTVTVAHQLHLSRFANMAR
# Protein RecA = target: T7, Protein RecA (Mycobacterium tuberculosis, UniProt P9WHJ3); experiment: Fluorescence Cell-Free Homogeneous Dose Retest to Identify Inhibitors of RecA-Intein Splicing Activity. [Related pubchem assays (depositor defined):AID2097, AID2223, AID489010, AID492950]; assay type: functional
# T7 sequence (P9WHJ3 whole entry): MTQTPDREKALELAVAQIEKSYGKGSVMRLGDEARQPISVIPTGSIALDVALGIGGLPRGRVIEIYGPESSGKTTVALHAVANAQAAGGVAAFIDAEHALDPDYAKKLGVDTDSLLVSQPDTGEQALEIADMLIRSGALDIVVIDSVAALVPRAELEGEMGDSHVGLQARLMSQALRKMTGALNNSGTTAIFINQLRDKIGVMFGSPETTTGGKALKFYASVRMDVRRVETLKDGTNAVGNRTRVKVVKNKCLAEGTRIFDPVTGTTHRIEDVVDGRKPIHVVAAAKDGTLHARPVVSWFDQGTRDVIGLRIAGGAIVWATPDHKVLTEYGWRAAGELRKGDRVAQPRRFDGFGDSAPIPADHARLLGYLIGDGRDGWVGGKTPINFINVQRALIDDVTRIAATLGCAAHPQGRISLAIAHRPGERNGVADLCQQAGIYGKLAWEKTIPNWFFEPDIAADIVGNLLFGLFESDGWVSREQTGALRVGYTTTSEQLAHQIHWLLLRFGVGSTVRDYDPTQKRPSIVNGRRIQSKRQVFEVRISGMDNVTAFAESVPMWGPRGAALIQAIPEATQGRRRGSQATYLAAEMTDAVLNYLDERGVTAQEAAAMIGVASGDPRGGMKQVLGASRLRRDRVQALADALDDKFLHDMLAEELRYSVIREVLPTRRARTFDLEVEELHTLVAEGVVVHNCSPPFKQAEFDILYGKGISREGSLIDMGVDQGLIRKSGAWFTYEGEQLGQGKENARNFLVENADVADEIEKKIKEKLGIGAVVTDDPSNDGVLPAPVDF
# Chain of Trypsin (P00761 whole entry): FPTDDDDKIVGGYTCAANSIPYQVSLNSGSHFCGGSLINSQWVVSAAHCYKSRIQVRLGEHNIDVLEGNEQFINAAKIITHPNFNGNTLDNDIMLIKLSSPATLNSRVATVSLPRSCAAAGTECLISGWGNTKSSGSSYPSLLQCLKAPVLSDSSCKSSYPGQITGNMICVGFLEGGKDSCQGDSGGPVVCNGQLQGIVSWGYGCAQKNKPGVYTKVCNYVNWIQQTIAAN
# Chain of Eukaryotic translation initiation factor 4E (P63073 whole entry): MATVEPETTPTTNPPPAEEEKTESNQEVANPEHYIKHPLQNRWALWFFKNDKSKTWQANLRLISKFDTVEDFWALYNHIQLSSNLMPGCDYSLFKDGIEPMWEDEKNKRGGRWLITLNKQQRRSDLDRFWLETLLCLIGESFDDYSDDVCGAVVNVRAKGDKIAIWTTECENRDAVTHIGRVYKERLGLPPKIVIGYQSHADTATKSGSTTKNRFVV
# Chain of Neurotensin receptor type 1 (P30989 whole entry): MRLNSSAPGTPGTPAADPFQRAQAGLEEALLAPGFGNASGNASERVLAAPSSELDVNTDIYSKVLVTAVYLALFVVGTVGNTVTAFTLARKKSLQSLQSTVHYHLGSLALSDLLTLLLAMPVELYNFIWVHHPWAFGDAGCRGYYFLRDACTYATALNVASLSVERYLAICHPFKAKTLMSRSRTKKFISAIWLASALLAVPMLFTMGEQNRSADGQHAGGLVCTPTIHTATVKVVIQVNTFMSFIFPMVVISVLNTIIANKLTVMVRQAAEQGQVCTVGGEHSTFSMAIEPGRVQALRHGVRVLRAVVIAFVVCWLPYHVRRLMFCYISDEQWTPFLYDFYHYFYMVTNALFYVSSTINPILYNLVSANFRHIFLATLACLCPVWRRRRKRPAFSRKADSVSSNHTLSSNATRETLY
# Chain of Cytochrome P450 3A4 (P08684 whole entry): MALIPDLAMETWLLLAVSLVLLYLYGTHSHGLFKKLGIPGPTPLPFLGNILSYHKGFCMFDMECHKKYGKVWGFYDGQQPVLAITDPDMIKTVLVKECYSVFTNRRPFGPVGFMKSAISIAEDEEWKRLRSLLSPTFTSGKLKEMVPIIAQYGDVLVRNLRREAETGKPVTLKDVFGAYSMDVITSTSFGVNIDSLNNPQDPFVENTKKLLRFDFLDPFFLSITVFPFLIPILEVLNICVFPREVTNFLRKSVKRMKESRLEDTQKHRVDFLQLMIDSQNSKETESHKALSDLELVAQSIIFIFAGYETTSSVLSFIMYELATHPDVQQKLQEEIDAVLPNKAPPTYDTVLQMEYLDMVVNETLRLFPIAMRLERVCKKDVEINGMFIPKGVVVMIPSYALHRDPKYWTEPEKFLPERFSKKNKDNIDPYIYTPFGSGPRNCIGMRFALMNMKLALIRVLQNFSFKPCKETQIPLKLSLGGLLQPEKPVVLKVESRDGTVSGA
SMILES,IC50 [5],AC50 (CAAX prenyl protease 1),AC50 (Trypsin),AC50 (CAAX prenyl protease 2),also measured
Cc1cc(C)cc(N2C(=O)NC(=O)/C(=C\c3cccn3-c3ccccc3)C2=O)c1,,,,,AC50 [1]: 13.8 µM (active); CC50 [2]: 19.9 µM (active); EC50 [3]: 10.3 µM (active); IC50 [4]: > 80 µM (inactive)
CCN(CC)c1ccc(NC(=O)CCCOc2cccc(C)c2)cc1,50 µM (inactive),,,,
COc1ccc(CNC(=O)c2ccccc2NS(C)(=O)=O)cc1,,5.47 µM (active),12.4 µM (active),11.7 µM (active),
CCOc1c2ccc(C(=O)NCc3ccco3)cc2nn1CCOC,,11.5 µM (active),16.5 µM (active),12.3 µM (active),AC50 (Cytochrome P450 3A4): 22.4 µM (inconclusive); AC50 (Cytochrome P450 1A2): 15.8 µM (inconclusive)
CN(C)/C=N/c1c(C#N)cnn1-c1ncnc2sc(-c3ccccc3)cc12,,,8.06 µM (active),19.1 µM (active),
CC(=O)c1c(C)nc(-c2ccc(Cl)cc2)nc1/N=C/N(C)C,40 µM (inactive),,,,AC50 [6]: > 20 µM (inactive); AC50 [7]: > 380 µM (inactive); EC50 (Protein RecA): > 380 µM (inactive)
